Laboratory results from US20260297060A1, “COMPOUNDS FOR THE DEGRADATION OF MUTANT BRAF” (C4 THERAPEUTICS, INC., priority 2023, published 2026).

Assays:
A375-NRAS^Q61K cells = assay: CTGlo Cell Viability Assay, A375-NRAS^Q61K (A375.11) cells, 96 hours; type: cell-based, human; settings: A375.11 (A375-NRAS^Q61K) cells; for Emax / CTGlo A375.11 96 hours Emax: lowest % viability achieved
How it was run: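 A375 cells carrying BRAF V600E and NRAS Q61K were seeded at 250 cells/well with a 10-point half-log dose series (max 10 μM final). After 96 h at 37 °C, viability was read as ATP luminescence (CellTiter-Glo), background-subtracted and normalized to DMSO (100%). GI50 from 4-parameter fit; Emax is the lowest % viability.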

[1] = biological target: T1, human bile salt export pump (BSEP) efflux transporter (Homo sapiens, UniProt O95342); assay: BSEP Vesicular Transport Inhibition Assay (IC50 determination); type: biochemical; settings: human BSEP (HEK293) vesicles, taurocholate 0.2 μM, 4 mM Mg-ATP, 10 concentrations, 1 replicate
T1 construct: purchased SOLVO Biotechnology Charles River Laboratories, Szeged, Hungary; host or cells: HEK293 (inside out membrane vesicles)
T1 sequence (O95342 whole entry): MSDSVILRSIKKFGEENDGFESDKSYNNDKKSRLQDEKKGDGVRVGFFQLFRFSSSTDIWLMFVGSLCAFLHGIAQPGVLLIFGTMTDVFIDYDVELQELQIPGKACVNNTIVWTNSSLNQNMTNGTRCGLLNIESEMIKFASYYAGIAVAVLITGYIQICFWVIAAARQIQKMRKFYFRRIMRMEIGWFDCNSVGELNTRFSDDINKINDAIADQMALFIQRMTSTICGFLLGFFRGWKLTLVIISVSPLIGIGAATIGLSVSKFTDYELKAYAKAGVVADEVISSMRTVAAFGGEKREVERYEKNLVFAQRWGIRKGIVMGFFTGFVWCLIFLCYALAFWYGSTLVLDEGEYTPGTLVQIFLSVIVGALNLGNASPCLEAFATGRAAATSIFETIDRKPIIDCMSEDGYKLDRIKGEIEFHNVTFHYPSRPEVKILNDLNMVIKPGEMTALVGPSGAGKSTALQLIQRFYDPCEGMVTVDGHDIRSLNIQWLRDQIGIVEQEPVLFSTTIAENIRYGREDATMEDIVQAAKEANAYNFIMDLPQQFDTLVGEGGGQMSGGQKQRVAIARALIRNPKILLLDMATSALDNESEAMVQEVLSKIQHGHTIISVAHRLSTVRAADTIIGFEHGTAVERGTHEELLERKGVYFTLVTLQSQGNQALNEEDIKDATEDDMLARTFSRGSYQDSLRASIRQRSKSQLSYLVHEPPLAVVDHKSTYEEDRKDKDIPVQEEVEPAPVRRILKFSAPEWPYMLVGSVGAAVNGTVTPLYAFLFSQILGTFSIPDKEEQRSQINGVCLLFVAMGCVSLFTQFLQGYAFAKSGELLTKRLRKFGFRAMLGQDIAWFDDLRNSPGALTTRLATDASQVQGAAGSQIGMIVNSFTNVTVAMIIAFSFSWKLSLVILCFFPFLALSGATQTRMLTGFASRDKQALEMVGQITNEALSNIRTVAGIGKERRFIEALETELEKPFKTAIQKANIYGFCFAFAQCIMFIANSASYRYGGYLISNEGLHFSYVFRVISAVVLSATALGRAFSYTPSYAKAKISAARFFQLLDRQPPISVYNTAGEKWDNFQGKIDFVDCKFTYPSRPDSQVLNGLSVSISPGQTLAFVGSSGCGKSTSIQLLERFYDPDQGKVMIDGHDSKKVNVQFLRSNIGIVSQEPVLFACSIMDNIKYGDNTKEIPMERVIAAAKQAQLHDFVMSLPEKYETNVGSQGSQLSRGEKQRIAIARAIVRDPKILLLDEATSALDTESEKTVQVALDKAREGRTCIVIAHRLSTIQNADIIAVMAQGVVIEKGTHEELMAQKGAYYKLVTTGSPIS
Protocol: The vesicular transport (VT) assays were performed using inside out membrane vesicles derived from HEK293 cells expressing the specified human bile salt export pump (BSEP) efflux transporter. The membrane vesicles were procured from SOLVO Biotechnology Charles River Laboratories, Szeged, Hungary.
The principle of the assay relies on measuring the accumulation of substrate into inside out vesicles containing the efflux transporter. By utilizing inside out vesicles, the ATP-dependent transport of substrate is directed into the vesicular lumen, where low permeability compounds are then essentially trapped.
For the IC50 screen inhibition assay, 10 concentrations of each compound were tested in the presence of ATP (active transport) in 1 replicate.
The solvent control (DMSO) was tested in the presence of ATP (active transport) and in the presence of AMP (background) in 8 replicates.
Vesicular transport inhibition assays were performed using the specific parameters for each transporter inhibition assay described in Table 53.
Table 54 specifies treatment groups and concentration of compounds, that were examined in the vesicular transport inhibition assay. Detailed data of IC50 screen inhibition assay are shown in Table 55 and detailed data of 1 concentration inhibition assay are shown in Table 56.
The vesicular transport inhibition assay was performed with 4 mM Mg-ATP. For the IC50 screen inhibition assay, 10 concentrations of each compound were tested in the presence of ATP in 1 replicate. For the 1 concentration inhibition assay, 1 concentration of each compound was tested in the presence of ATP (active transport) in 2 replicates. The solvent control (DMSO) was tested in the presence of 4 mM Mg-ATP (active transport) and in the presence of 4 mM AMP (background) in 8 replicates.
The BSEP membrane vesicle suspension was mixed with the ice-cold transport buffer, then the taurocholate probe substrate solution was added (Reaction mixture, 50 μL per well). The compounds were added to the reaction mixture at 1.5-times the final assay concentration. […].
Reaction mixtures and the start reagent (Mg-ATP or AMP in transport buffer) were pre-warmed separately for 15 minutes to reach the incubation temperature of 37° C. […]
The reaction was initiated by the addition of the start reagent (25 μL) to the reaction mixture (diluting the reaction mixture to the final concentration). […] After the 5-minute incubation at 37° C., the reaction was stopped by the addition of 250 μL ice-cold washing mix to each well. […]
The samples were then be transferred to a filter plate and washed with 200 μL cold washing mix5-times to remove any free compounds or taurocholate probe substrate. The amount of taurocholate probe substrate inside the filtered vesicles were determined by liquid scintillation counting. […]

| Structure (SMILES) | GI50 (A375-NRAS^Q61K cells; Homo sapiens, 96 h) [nM] | Emax (A375-NRAS^Q61K cells; Homo sapiens, 96 h) [%] | BSEP Inhibition/IC50 ([1]; in nM) | BSEP Inhibition/IC50 [1] [nM] | GI50 (A375-NRAS^Q61K cells) [nM] | CTGlo A375.11 96 hours Emax (A375-NRAS^Q61K cells) |
| --- | --- | --- | --- | --- | --- | --- |
| CCN(C)S(=O)(=O)Nc1ccc(F)c(Oc2ccc3ncc(C4CC5(CCN(C6CCC(c7cc8c(cc7F)c(N7CCC(=O)NC7=O)nn8C)CC6)CC5)C4)nc3c2)c1C#N (single isomer, unassigned) [Compound 180, 7-[2-cyano-3-[[ethyl(methyl)sulfamoyl]amino]-6-fluoro-phenoxy]-2-[7-[4-[3-(2,4-dioxohexahydropyrimidin-1-yl)-5-fluoro-1-methyl-indazol-6-yl]cyclohexyl]-7-azaspiro[3.5]nonan-2-yl]quinoxaline] | < 1000 | < 50 | 12180 | – | – | – |
| Cn1nc(N2CCC(=O)NC2=O)c2cc(F)c(N3CC4(CC(N5CCC6(CC5)CC(n5cnc7ccc(Oc8c(F)ccc(NS(=O)(=O)C9CCCC9)c8C#N)cc7c5=O)C6)C4)C3)cc21 [Compound 250, N-[2-cyano-3-[3-[7-[2-[3-(2,4-dioxohexahydropyrimidin-1-yl)-5-fluoro-1-methyl-indazol-6-yl]-2-azaspiro[3.3]heptan-6-yl]-7-azaspiro[3.5]nonan-2-yl]-4-oxo-quinazolin-6-yl]oxy-4-fluoro-phenyl]cyclopentanesulfonamide] | < 1000 | < 50 | – | 8450 | – | – |
| CCN(C)S(=O)(=O)Nc1ccc(F)c(Oc2ccc3ncn(C4CC5(CCN(C6CC7(CCN(c8cc9c(cc8F)c(N8CCC(=O)NC8=O)nn9C)CC7)C6)CC5)C4)c(=O)c3c2)c1C#N (stereo not drawn) [Compound 198, 6-[2-cyano-3-[[ethyl(methyl)sulfamoyl]amino]-6-fluoro-phenoxy]-3-[7-[7-[3-(2,4-dioxohexahydropyrimidin-1-yl)-5-fluoro-1-methyl-indazol-6-yl]-7-azaspiro[3.5]nonan-2-yl]-7-azaspiro[3.5]nonan-2-yl]-4-oxo-quinazoline] | 1000 to 10000 | < 50 | 15250 | – | – | – |
| CCN(C)S(=O)(=O)Nc1ccc(F)c(Oc2ccc3ncc(OCC4CCN(C5CCC(c6cc7c(cc6F)c(N6CCC(=O)NC6=O)nn7C)CC5)CC4)nc3c2)c1C#N (single isomer, unassigned) [Compound 118, 7-[2-cyano-3-[[ethyl(methyl)sulfamoyl]amino]-6-fluoro-phenoxy]-2-[[1-[4-[3-(2,4-dioxohexahydropyrimidin-1-yl)-5-fluoro-1-methyl-indazol-6-yl]cyclohexyl]-4-piperidyl]methoxy]quinoxaline] | 1000 to 10000 | 50 to 90 | >40000 | – | – | – |
| CCN(C)S(=O)(=O)Nc1ccc(F)c(Oc2ccc3ncc([C@@H]4COC5(CCN(C6CCC(c7cc8c(cc7F)c(N7CCC(=O)NC7=O)nn8C)CC6)CC5)C4)nc3c2)c1C#N (single isomer, unassigned) [Compound 54] | < 1000 | < 50 | 11010 | – | – | – |
| Cn1nc(N2CCC(=O)NC2=O)c2cc(F)c(N3CC4(CC(N5CCC6(CC5)CC(n5cnc7ccc(Oc8c(F)ccc(NS(=O)(=O)N9CC[C@@H](F)C9)c8C#N)cc7c5=O)C6)C4)C3)cc21 [Compound 261, (3R)-N-[2-cyano-3-[3-[7-[2-[3-(2,4-dioxohexahydropyrimidin-1-yl)-5-fluoro-1-methyl-indazol-6-yl]-2-azaspiro[3.3]heptan-6-yl]-7-azaspiro[3.5]nonan-2-yl]-4-oxo-quinazolin-6-yl]oxy-4-fluoro-phenyl]-3-fluoro-pyrrolidine-1-sulfonamide] | < 1000 | < 50 | >40000 | – | – | – |
| CCN(C)S(=O)(=O)Nc1ccc(F)c(Oc2ccc3ncn([C@H]4CCC5(CCN(C6CCC(c7cc8c(cc7F)c(N7CCC(=O)NC7=O)nn8C)CC6)CC5)C4)c(=O)c3c2)c1C#N (single isomer, unassigned) [Compound 33] | < 1000 | < 50 | 10060 | – | – | – |
| CO[C@@H]1CCN(S(=O)(=O)Nc2ccc(F)c(Oc3ccc4ncn([C@H]5COC6(CCN(C7CC8(C7)CN(c7cc9c(cc7F)c(N7CCC(=O)NC7=O)nn9C)C8)CC6)C5)c(=O)c4c3)c2C#N)C1 [Compound 144, (3R)-N-[2-cyano-3-[3-[(3R)-8-[2-[3-(2,4-dioxohexahydropyrimidin-1-yl)-5-fluoro-1-methyl-indazol-6-yl]-2-azaspiro[3.3]heptan-6-yl]-1-oxa-8-azaspiro[4.5]decan-3-yl]-4-oxo-quinazolin-6-yl]oxy-4-fluoro-phenyl]-3-methoxy-pyrrolidine-1-sulfonamide] | < 1000 | < 50 | – | 7940 | – | – |
| CC(C)S(=O)(=O)Nc1ccc(F)c(Oc2ccc3ncn(C4CC5(CCN(C6CC7(C6)CN(c6cc8c(cc6F)c(N6CCC(=O)NC6=O)nn8C)C7)CC5)C4)c(=O)c3c2)c1C#N (stereo not drawn) [Compound 273, N-[2-cyano-3-[3-[7-[2-[3-(2,4-dioxohexahydropyrimidin-1-yl)-5-fluoro-1-methyl-indazol-6-yl]-2-azaspiro[3.3]heptan-6-yl]-7-azaspiro[3.5]nonan-2-yl]-4-oxo-quinazolin-6-yl]oxy-4-fluoro-phenyl]propane-2-sulfonamide] | < 1000 | < 50 | 20580 | – | – | – |
| CCN(C)S(=O)(=O)Nc1ccc(F)c(Oc2ccc3ncn([C@H]4COC5(CCN(C6CCC(c7cc8c(cc7F)c(N7CCC(=O)NC7=O)nn8C)CC6F)CC5)C4)c(=O)c3c2)c1C#N (single isomer, unassigned) [Compound 28] | < 1000 | < 50 | – | 1960 | – | – |
| CCN(C)S(=O)(=O)Nc1ccc(F)c(Oc2ccc3ncn([C@H]4COC5(CCC(N6CCC(c7cc8c(cc7F)c(N7CCC(=O)NC7=O)nn8C)C(F)(F)C6)CC5)C4)c(=O)c3c2)c1C#N (single isomer, unassigned) [Compound 39] | – | – | – | 1560 | < 1000 | *** (<=50%) |
| CCN(C)S(=O)(=O)Nc1ccc(F)c(Oc2ccc3ncn([C@@H]4CCC5(CCN(C6CCC(c7cc8c(cc7F)c(N7CCC(=O)NC7=O)nn8C)CC6)CC5)C4)c(=O)c3c2)c1C#N (single isomer, unassigned) [Compound 31] | 1000 to 10000 | < 50 | – | 4230 | – | – |
| CCN(C)S(=O)(=O)Nc1ccc(F)c(Oc2ccc3ncc(OC4CC5(CCN(C6CCC(c7cc8c(cc7F)c(N7CCC(=O)NC7=O)nn8C)CC6)CC5)C4)nc3c2)c1C#N (single isomer, unassigned) [Compound 218, 7-[2-cyano-3-[[ethyl(methyl)sulfamoyl]amino]-6-fluoro-phenoxy]-2-[[7-[4-[3-(2,4-dioxohexahydropyrimidin-1-yl)-5-fluoro-1-methyl-indazol-6-yl]cyclohexyl]-7-azaspiro[3.5]nonan-2-yl]oxy]quinoxaline] | – | 50 to 90 | 13210 | – | < 1000 | – |
| CCN(C)S(=O)(=O)Nc1ccc(F)c(Oc2ccc3ncn([C@H]4COC5(CCC(N6CCC(c7cc8c(cc7F)c(N7CCC(=O)NC7=O)nn8C)C(F)(F)C6)CC5)C4)c(=O)c3c2)c1C#N (single isomer, unassigned) [Compound 38] | < 1000 | < 50 | 963.6 | – | – | – |
| CCN(C)S(=O)(=O)Nc1ccc(F)c(Oc2ccc3ncn(C4CC5(CCN(C6CCC(c7cc8c(cc7F)c(N7CCC(=O)NC7=O)nn8C)CC6F)CC5)C4)c(=O)c3c2)c1C#N (single isomer, unassigned) [Compound 85] | – | – | – | 9810 | < 1000 | *** (<=50%) |
